In PMC2867246 (Biochemistry, 2010):

Key:
CaV2.2 = conditions: cited from earlier work
Swiss Webster mice = conditions: mouse, in vivo
[1] = system: N-type calcium channels (CaV2.2); type: cell-based; conditions: pH 7.4

## ω-conotoxin GVIA
CaV2.2
  affinity for CaV2.2, in words: high affinity
Swiss Webster mice
  behavior after injection: shaking syndrome
  behavior at higher concentrations: passive behavior with a backwards leg-extension
  duration of shaking behavior: lasted for more than a day
[1]
  percentage block of N-current: 98.5 ± 1.0 percentage
